Experiments:
PGC-1α and related genes = test: Gene expression in brain and hippocampus of Alzheimer's disease models; assay type: in vivo, mouse; conditions: 3×Tg mice, oral 0.1 mg/kg/day, 10 weeks
Excerpt: In order to investigate the changes in gene expression and cognitive ability by the treatment with SL (3′-SL & 6′-SL) compositions in Alzheimer's brain disease models, 6-week-old mice were purchased from Central Lab Animal (Korea). Water was freely accessible, and a commercially available pellet feed (Dooyeul Biotech, Korea) was given for two weeks. At 8 weeks of age, the mice were divided into three groups (composed of eight mice for each group): Eight 8-week-old male c57/BL6 mice (normal mice; initial body weight, average 35.6±3.3 g) treated with a normal diet were used for a control group. […]
Sialyllactose or DW was orally administered daily. […] The dietary intake and body weight change were measured every 5 days. […]
The gene expression changes by the treatment with SL (3′-SL & 6′-SL) compositions were quantitatively compared in two main organs (brain and hippocampus) associated with bran diseases. […] RNA was extracted by TRIzol agent (Invitrogen). cDNA was synthesized by using RNA, which has been extracted as above and quantified, and a reverse transcription system (Promega, USA). The expression patterns of PGC-1α and related genes were measured by using pre-designed primers and probes (Applied Biosystems; PGC-1α, Mm00447181_m1, GAPDH, and Mm99999915_q1) for the synthesized cDNA and analysis targets (Fndc5, PGC-1α, Erra, UCP1, BDNF, SOD2, and GPX1). […]

[1] = tested on: mouse aortic smooth muscle cells (MASMs); test: Mitochondrial superoxide production (MitoSOX Red) in MASMs of aging stimulation model mice; assay type: cell-based; conditions: MASMs from aging stimulation model mice; SL added to culture liquid
Experimental: For the measurement of mitochondrial superoxide production, mitochondrial ROS was measured using MitoSOX Red (mitochondrial superoxide fluorescent marker). MASMs were extracted, and incubated with MitoSOX (4 μM) in the dark room at 37° C. for 20 minutes. The MitoSOX fluorescence was quantified by the cell fluorescence intensity read using a fluorescent plate reader (480 nm excitation/580 nm emission) (FIG. 17b).
In FIGS. 17a and 17b, MASMs were extracted from the aging stimulation model mouse control group, and the SL (3′-SL & 6′-SL) compositions were added to the culture liquid to conduct comparison.
FIGS. 17a and 17b show the measurement results of intercellular H2O2 (ROS values) (FIG. 17a) and the measurement results of mitochondrial superoxide production (FIG. 17b).

[2] = tested on: mouse models with temporary and permanent middle cerebral artery (MCA) occlusion; test: Ischemic volume (TTC) in stroke models with middle cerebral artery occlusion; assay type: in vivo; conditions: intraperitoneal
Excerpt: In order to investigate the changes in ischemic volume and modified limb placing test (MLPT) score by treatment with SL (3′-SL & 6′-SL) compositions in stroke models, 4-week-old mice were purchased from Central Lab Animal (Korea). Water was freely accessible, and a commercially available pellet feed (Dooyeul Biotech, Korea) was given for one week. Stroke models involving temporary and permanent middle cerebral artery (MCA) occlusion and intracerebral hemorrhage (ICH) were fabricated using 6-week-old male Sprague-Dawley rats (weight, average 185.3±15.8 g) and male BALB/c mice weight, average 24.6±3.8 g). For the comparison of SL administration effects, the mice, one hour after stroke induction, were randomly grouped into three different intraperitoneal administration groups (8 animals per group, 24 animals in total) below, and then intraperitoneally administered: • Control group: Lysis buffer control group medium intraperitoneal administration group (8 animals) • 3′-SL treatment: 3′-SL lysis buffer medium intraperitoneal administration group (8 animals) • 6′-SL treatment: 6′-SL lysis buffer medium intraperitoneal administration group (8 animals)
Local cerebral infarction mouse models were used as additional cerebral infarction models, and in these models, SL (3′-SL & 6′-SL) was intraperitoneally administered 3 hours after cerebral infarction introduction: • Control group: Lysis buffer control group medium intraperitoneal administration group (8 animals) • 3′-SL treatment: 3′-SL lysis buffer medium intraperitoneal administration group (8 animals) • 6′-SL treatment: 6′-SL lysis buffer medium intraperitoneal administration group (8 animals)
The ischemic volume measurement was conducted by measuring the volume of the ischemic area (infarct and boundary region thereof) using […] (TTC), 24 hours after ischemic induction, as follows. After brain extraction, the frontal tip was cut into 1 mm thickness, and immersed in 2% TCC solution. The stained slices were then fixed with PBS-4% paraformaldehyde, and the ischemic site and hemispherical region of each slice were measured using an image analysis system. The values due to brain edema were corrected as follows: corrected ischemic volume value: measured ischemic area×1−{[(ipsilateral hemisphere area-contralateral hemisphere area)/contralateral hemisphere]}. The ischemic volume was expressed as a percentage of the total hemispherical volume.

SMILES | expression levels of PGC-1α and related genes vs SL non-administration (Alzheimer's disease model) group (PGC-1α and related genes) | mitochondrial superoxide production [1] | ischemic neuronal damage protective effects ([2]; MCA occlusion models) | expression levels of PGC-1α and related genes vs normal control group (PGC-1α and related genes) | reduction of ischemic volume ([2]; all models, 24 hours after ischemic induction) | reduction of ischemic volume ([2]; local cerebellar permanent ischemia models) [%] | reduction of ischemic volume ([2]; local cerebellar temporal ischemia models) [%] | reduction of ischemic volume ([2]; local cerebral permanent occlusion models) [%]
CC(=O)N[C@H]1[C@H]([C@H](O)[C@H](O)CO)O[C@@](O[C@H]2[C@@H](O)[C@@H](CO)O[C@@H](O[C@H]3[C@H](O)[C@@H](O)C(O)O[C@@H]3CO)[C@@H]2O)(C(=O)O)C[C@@H]1O (stereo partly drawn) [3′-SL, α-NeuNAc-(2→3)-β-D-Gal-(1→4)-D-Glc] | relatively low compared with 6′-SL | inhibited the mitochondrial superoxide production | relatively low compared with 6′-SL |  |  |  |  | 
CC(=O)N[C@H]1[C@H]([C@H](O)[C@H](O)CO)O[C@@](OC[C@H]2O[C@@H](O[C@H]3[C@H](O)[C@@H](O)[C@H](O)O[C@@H]3CO)[C@H](O)[C@@H](O)[C@H]2O)(C(=O)O)C[C@@H]1O [6′-SL, α-NeuNAc-(2→6)-β-D-Gal-(1→4)-D-Glc] | very high | inhibited the mitochondrial superoxide production |  | somewhat lower | about 50% | 50 | 60 | 40

Reference: US20190030053A1, “COMPOSITION FOR INCREASING EXPRESSION OF PGC-1alpha” (BENEBIOSIS CO., LTD., priority 2016, published 2019)
